The source of these data is patent US4483869A, “Thiocarnitines, process for their preparation and pharmaceutical compositions containing same” (Sigma-Tau Industrie Farmaceutiche Riunite S.p.A., priority 1980, dated 1984).

Data set [1] in a line: Crossing of the blood-brain barrier.
In data set [2] the test system is rats. As to the kind of experiment: Protection against X-ray exposure in rats (survival after irradiation). The data set is classed as in vivo, Albino Wister rats. The note with it: 20-25 mg Kg^-1 1 hour before irradiation; for Percentage of surviving animals, day 10: 10 days from irradiation, control 90; for Percentage of surviving animals, day 20: 20 days from irradiation, control 20; for Percentage of surviving animals, day 30: 30 days from irradiation, control 10. On the procedure: The effect of the compounds of formula (I) towards the damages provoked by X-ray exposure was studied.
The experiment animals, Albino Wister rats, treated with the compounds under examination (20-25 mg Kg^-1 1 hour before irradiation) were irradiated and checked over a time period to detect the onset of toxic effects and the time of survival with respect to the control group. […]
Protective effect of some thiocarnitines of general
formula (I) towards the damage provoked by irradiation
in rats. Percentage of surviving animals at
various days from irradiation.

The nature of data set [3]: Acute toxicity in the mouse, Weil's method. The note with it: in vivo, ip. An excerpt: The acute toxicity of the compounds of general formula (I) has been studied in the mouse with the Weil method (Weil C. S., Biometr. J. 8, 249, 1952).
The LD50 values of some compounds illustrated in Table I, indicate that the compounds are remarkably well tolerated.
LD50, mg Kg^-1, ep in mouse of some thiocarnitines of general
formula (I). Weil's method (N = 5, K = 4) Cl = hydrochloride

The test system of data set [4] is CoA. Kind of data set: Transfer of the acetyl group to CoA / acyl group donor. The format is biochemical.
Data set [5] deals with acetylcholine. Kind of data set: Formation of acetylcholine.
The test system of data set [6] is rabbit. Kind of data set: Cutaneous regeneration from burns in the rabbit. The data set is classed as in vivo. Conditions: 20 mg Kg^-1 orally once a day for seven days; for Percentage of regenerated tissue, 4th day: control 20; for Percentage of regenerated tissue, 8th day: control 50. On the procedure: The ability of the compounds of formula (I) to speed up the cutaneous regeneration from burns has been tested in the rabbit.
A 4 cm^2 cutaneous area of the average-top zone of the test animal back was burned.
The compounds were orally administered in aqueous solution at the dose of 20 mg Kg^-1 once a day for seven days. The area of cutaneous regeneration i.e. the area of the newly formed tissue, was then measured (Table III).
Effect of compounds of formula (I) on cutaneous
regeneration. Percentage of regenerated tissue at the 4th
and 8th day from treatment.

Data set [7] can be described thus: Hygroscopicity and stability to the atmosphere of the isolated product. The format is physicochemical. The note with it: for hygroscopicity: isolated product.
The mark [8] stands for this setting: "ep" route, Weil's method (N = 5, K = 4).

Structures can show the parent of a compound that is named as a salt.

Take `CC(=O)SC(CC(=O)O)C[N+](C)(C)C` (centres unmarked) [S--acetyl thiocarnitine Cl, S-acetyl thiocarnitine hydrochloride]: the “ability to cross the blood-brain barrier” value in data set [1] is reported as “able to cross the blood-brain barrier”. In addition, in data set [2], the “Percentage of surviving animals, day 10” value was 100 Percentage; the “Percentage of surviving animals, day 20” value is reported as 70 Percentage; the “Percentage of surviving animals, day 30” value is reported as 60 Percentage. The compound also showed an LD50 in data set [3] (setting [8]) of 294 mg/kg. The “acyl group donor activity” value in data set [4] is reported as “potent acyl group donor”. For the same compound, the “transfer of the acetyl group to CoA” value in data set [4] (in the absence of CoA carnitine acetyl transferase) is recorded as “able to transfer the acetyl group to CoA directly even in the absence of the enzyme”. For the same compound, the formation of acetylcholine entry in data set [5] is given as “promotes the formation of acetylcholine”. In data set [6], the “Percentage of regenerated tissue, 4th day” value (from here on “Percentage … 4th day”) is given as 50 Percentage and the “Percentage of regenerated tissue, 8th day” value (shortened to “Percentage … 8th day”) is recorded as 90 Percentage.

Regarding `CCCC(=O)SC(CC(=O)O)C[N+](C)(C)C` (centres unmarked) [S--butyryl thiocarnitine Cl, S-butyryl thiocarnitine halogenide], in data set [2], the “Percentage of surviving animals, day 10” value stood at 90 Percentage; the “Percentage of surviving animals, day 20” value is reported as 40 Percentage; the “Percentage of surviving animals, day 30” value came to 40 Percentage. In addition, the LD50 in data set [3] was 350 mg/kg. In data set [6], the “Percentage … 4th day” value worked out at 20 Percentage and the “Percentage … 8th day” value is given as 40 Percentage.

For `CCC(CC)C(=O)SC(CC(=O)O)C[N+](C)(C)C` (centres unmarked) [S--diethylacetyl thiocarnitine Cl, S-diethylacetyl thiocarnitine], the hygroscopicity entry in data set [7] is “highly hygroscopic”. In data set [2], the “Percentage of surviving animals, day 10” value is given as 80 Percentage; the “Percentage of surviving animals, day 20” value came to 60 Percentage; the “Percentage of surviving animals, day 30” value was found to be 30 Percentage. In addition, the LD50 in data set [3] (setting [8]) came to 295 mg/kg. For the same compound, in data set [6], the “Percentage … 4th day” value stood at 50 Percentage and the “Percentage … 8th day” value came out at 60 Percentage.

With `CCCC(CCC)C(=O)SC(CC(=O)O)C[N+](C)(C)C` (centres unmarked) [S--dipropylacetyl thiocarnitine Cl, S-dipropylacetil thiocarnitine hydrochloride], in data set [2], the “Percentage of surviving animals, day 10” value was determined as 90 Percentage; the “Percentage of surviving animals, day 20” value is given as 70 Percentage; the “Percentage of surviving animals, day 30” value is 50 Percentage. Moreover, the LD50 in data set [3] amounted to 350 mg/kg. Moreover, in data set [6], the “Percentage … 4th day” value is recorded as 50 Percentage and the “Percentage … 8th day” value came out at 100 Percentage.

Take `CC(O)CC(=O)SC(CC(=O)O)C[N+](C)(C)C` (stereo not drawn) [S--hydroxybutyryl thiocarnitine Cl, S-beta hydroxybutyryl thiocarnitine]: the hygroscopicity result in data set [7] is listed as “very hygroscopic”. In data set [2], the “Percentage of surviving animals, day 10” value amounted to 100 Percentage; the “Percentage of surviving animals, day 20” value is 80 Percentage; the “Percentage of surviving animals, day 30” value was 60 Percentage. Also, in data set [3] (setting [8]), the LD50 was 300 mg/kg. Also, in data set [6], the “Percentage … 4th day” value was 30 Percentage and the “Percentage … 8th day” value was found to be 60 Percentage.

For the compound `CCC(=O)SC(CC(=O)O)C[N+](C)(C)C` (centres unmarked) [S--propionyl thiocarnitine Cl, S-propionyl thiocarnitine halogenide], in data set [2], the “Percentage of surviving animals, day 10” value is given as 90 Percentage; the “Percentage of surviving animals, day 20” value was 70 Percentage; the “Percentage of surviving animals, day 30” value was found to be 50 Percentage. In addition, in data set [3], the 50% lethal dose (LD50) was 302 mg/kg. Moreover, in data set [6], the “Percentage … 4th day” value is listed as 30 Percentage and the “Percentage … 8th day” value amounted to 70 Percentage.

With `C[N+](C)(C)CC(S)CC(=O)O` (centres unmarked) [Thiocarnitine, thiocarnitine hydrochloride], the “stability upon exposure to the atmosphere” value in data set [7] (exposure to the atmosphere) is “darkened upon exposure to the atmosphere”. Further, the hygroscopicity entry in data set [7] is given as “very hygroscopic”. For the same compound, in data set [2], the “Percentage of surviving animals, day 10” value came to 95 Percentage; the “Percentage of surviving animals, day 20” value was found to be 60 Percentage; the “Percentage of surviving animals, day 30” value was 50 Percentage. In data set [3] (setting [8]), this compound displayed an LD50 of 150 mg/kg. For the same compound, in data set [6], the “Percentage … 4th day” value was found to be 40 Percentage and the “Percentage … 8th day” value stood at 90 Percentage.
